Test results taken from patent publication US20240277851A1, “siRNA DELIVERY VECTOR” (COUNCIL OF SCIENTIFIC & INDUSTRIAL RESEARCH, priority 2021, published 2024).

Key:
[1] = system: MCF-10A (normal mammary epithelial cells); assay: Sulforhodamine B cytotoxicity, MCF-10A; format: cell-based; settings: 24 h
Method: (§1) Cytotoxicity of Mito-Esc on different cancer cell lines HeLa (cervical), HepG2 (liver), MCF-7 (ER+ve breast), A549 (lung), DU-145 (prostate) cancer cells and MCF-10A (normal mammary epithelial cells) were determined by treating with Mito-Esc (0.5-100 μM) for 24 h and cell viability was measured by Sulforhodamine B assay.

[2] = system: DU-145 (prostate) cancer cells; assay: Sulforhodamine B cytotoxicity, DU-145; format: cell-based; settings: DU-145, 24 h
Method: as §1

[3] = system: MDA-MB-231 breast cancer cells; assay: Trypan blue dye exclusion cell viability, MDA-MB-231; format: cell-based; settings: MDA-MB-231, 24 h and 48 h, FIG. 1A
Method: FIG. 1: Mito-Esc dose- and time-dependently induces breast cancer cell death without affecting normal cell viability. (A) MDA-MB-231 breast cancer cells were treated with various concentrations of Mito-Esc (1.25-7.5 μM). Cell viability was measured by trypan blue dye exclusion assay at 24 h and 48 h. (B) Same as A, except that cells were treated with parent Esc (5-50 μM). (C) Same as A, except that MCF10A (normal mammary epithelial) cells were treated with Mito-Esc (5-50 μM).
MDA-MB-231 (a Triple negative breast cancer cell line, ATCC) and MCF-10A cells (normal mammary epithelial cells, ATCC) were grown in Dulbecco's Modified Eagle's medium (DMEM) containing 10% FBS, 1% (v/v) Sodium Pyruvate (100 mM), Sodium bicarbonate (26 mM), L-glutamine (4 mM), penicillin (100 units/ml), and streptomycin (100 μg/ml). Cells were maintained in an incubator at 37° C. in a humidified atmosphere of 5% CO2 and 95% air.
To evaluate cytotoxicity of the Mito-Esc or Mito-Esc lipoplexes with siMnSOD, a trypan blue dye exclusion assay was used. Briefly, cells were seeded in a 12-well plate at a density of 3×10^4 cells per well and cultured overnight before transfection. […] The cell suspension (10 μl) was mixed with an equal amount of trypan blue and counted using an automated cell counter (Countess, Life Technologies). […]

[4] = system: HepG2 (liver) cancer cells; assay: Sulforhodamine B cytotoxicity, HepG2; format: cell-based; settings: HepG2, 24 h
Method: as §1

[5] = system: MDA-MB-231 cells in mammary fat pad; assay: In-vivo orthotopic MDA-MB-231 tumor model; settings: SCID mice, i.p. 3 and 6 mg/kg for two weeks
Method: Inoculation of MDA-MB-231 cells into mammary fat pad of SCID mice: 6-week-old female SCID mice were used for the experiment. Initially, 10 nM Qtracker labeling solution (Qtracker Cell Labeling Kit, Invitrogen Q25071MP) was prepared by pre-mixing 10 μL each of Component A and Component B in a 1.5 mL microcentrifuge tube and incubated for 5 minutes at room temperature. This mixture was added to 0.2 mL of fresh complete growth medium and vortexed for 30 seconds and added to a 75-cm2 tissue culture flask containing MDA-MB-231 cells and incubated in a 37° C., 5% CO2 incubator overnight. Sub-confluent labeled cells were harvested and counted.
Cells (1×10^6) were suspended in 0.1 ml of serum free medium. To this 0.1 ml of matrigel was added and gently mixed to get a uniform cell suspension. The SCID mice were anesthetized with ketamine/xylazine cocktail (50 μL/20 g mice) and each mouse was implanted with above mentioned 1×10^6 Q-Tracker labelled MDA-MB-231 cells into the 4th pair of mammary fat pad orthotopically and sutured the fat pad after the inoculation of cells. The incision site was dressed with povidone-iodine to prevent infection every day until the incision healed. Mice were checked to see development of tumors and treatment began once the tumors reached a volume of ≥300 mm^3. […] On the day of sacrifice, tumor volumes were measured using Vernier calipers. […]

[6] = Size and surface charge of Mito-Esc nanoparticles (DLS, zeta potential); format: physicochemical; settings: aqueous solution (1% EtOH)
Method: The size (hydrodynamic diameter) and the surface charge (zeta potentials) of a Mito-Esc nanoparticle were measured by photon correlation spectroscopy and the electrophoretic mobility on a Zetasizer 3000HSA (Malvern, UK). The size was measured in deionized water with a sample refractive index of 1.33, a viscosity of 0.88 cP and a temperature of 25° C. The size was measured in triplicate. The zeta potential was measured using the following parameters: viscosity, 0.88 cP; dielectric constant, 78.5, and temperature, 25° C.
(§2) The self-assembling properties of Mito-Esc were explored. The particle size of an aqueous solution (1% EtOH) of Mito-Esc was measured using Dynamic light scattering (DLS). Mito-Esc formed nanosized particles of size 166±30 nm and surface charge of 33±0.4 mV (FIG. 2A). The size and morphology of self-assembled nanoparticles of Mito-Esc was investigated by scanning and by transmission electron microscopy respectively. Mito-Esc formed spherical shaped nanoparticles of <200 nm (FIGS. 2B & 2C).

MCF-10A cells = assay: Intracellular delivery of Cy-5 siRNA by confocal imaging, MCF-10A; format: cell-based
Method: FIG. 6: Comparison of intracellular delivery of Cy-5 siRNA using confocal imaging. MCF-10A cells were transfected with Cy-5 labelled siRNA using different delivery mechanisms. Transfection efficacy was evaluated using Confocal Microscopy. Cy-5 fluorescence in the cytosol is shown in blue.
(§3) Briefly, MDA-MB-231 cells were seeded on a coverslip in 12-well plates at a density of 3×10^4 cells per well in 1 mL complete DMEM and cultured for 12 h. Fluorescent (Cy-5) siRNA was complexed either with lipofectamine-2000 (positive control) or with Mito-Esc (2.5 μM) or parent esculetin (2.5 μM) or with different cationic lipids in serum free DMEM medium for 30 min before addition into the plates. These lipoplexes were added to the cells and incubated for 6 h. After that, cells were washed twice with PBS and fixed with 4% paraformaldehyde for 15 min. Finally, slides were mounted and the cells were imaged using a confocal microscope. Florescent labeled siRNA with Mito-Esc lipoplexes were prepared as described above and incubated with MDA-MB-231 cells for 24 h. The cells were stained by DAPI to stain the nucleus. The cells were mounted and observed under confocal microscope (Olympus, Tokyo, Japan).

[7] = system: HeLa (cervical) cancer cells; assay: Sulforhodamine B cytotoxicity, HeLa; format: cell-based; settings: 24 h
Method: as §1

MDA-MB-231 cells = assay: Intracellular delivery of Cy-5 siRNA by confocal imaging, MDA-MB-231; format: cell-based; settings: MDA-MB-231, Cy-5 siRNA 40 nM, 24 h
Method: as §3, with “FIG. 5: Detection of intracellular delivery of Cy-5 siRNA by Mito-Esc using confocal imaging. MDA-MB-231 cells were transfected with Cy-5 labelled siRNA (40 nM) with indicated delivery systems for 24 h. Transfection efficacy was evaluated using Confocal Microscopy. Cy-5 fluorescence in the cytosol is shown in blue color (Scale bar 10X). Briefly,” for “Briefly,”

[8] = Scanning and transmission electron microscopy of nanoparticles; format: physicochemical; settings: spherical shaped nanoparticles
Method: Transmission electron microscopy studies were performed on a Tecnai T12 microscope (FEI) at 120 kV, and images were taken using an SIS CCD camera; Samples were negatively stained with ammonium molybdate on 200 or 400 mesh carbon-coated copper grids (Ted Pella, Inc.). Before recording micrographs, the grids were air dried.
Field emission scanning electron microscopic (FESEM) analysis of a Mito-Esc nanoparticle was performed on a Carl Zeiss SIGMA HD field-emission scanning electron microscope.
as §2

[9] = system: MCF-7 (ER+ve breast) cancer cells; assay: Sulforhodamine B cytotoxicity, MCF-7; format: cell-based; settings: MCF-7, 24 h
Method: as §1

A549 (lung) cancer cells = assay: Sulforhodamine B cytotoxicity, A549; format: cell-based; settings: A549, 24 h
Method: as §1

MnSOD = MnSOD gene silencing by immunoblotting; format: cell-based; settings: MDA-MB-231, siMnSOD 40 nM, 48 h
Method: FIG. 4: Mito-Esc/siMnSOD complex by depleting MnSOD levels exacerbates Mito-Esc-induced breast cancer cell death. (A) MDA-MB-231 cells were incubated either with Mito-Esc/siMnSOD (40 nM) complex or with lipofectamine-2000/siMnSOD complex for 48 h and cell viability was measured by trypan blue dye exclusion assay. (B) MDA-MB-231 cells were transfected with siMnSOD (40 nM) with indicated delivery systems for 48 h and MnSOD protein levels were measured by immunoblotting. Parenthesis indicates the relative expression of MnSOD normalized to GAPDH (loading control).
At the end of the treatments, cell pellets were lysed in a RIPA buffer containing protease inhibitor cocktail, phosphatase inhibitor cocktail-2, 3. Proteins were resolved by SDS-PAGE and blotted onto a nitrocellulose membrane and blocked with 5% bovine serum albumin, washed, and incubated with primary antibodies (1:1000) over night at 4° C. The membranes were then washed and incubated for 1 h with anti-rabbit/mouse IgG horseradish peroxidase linked secondary antibodies (1:5000). ECL reagent (Amersham GE) was applied on the membrane prior to developing with a chemiluminescent system (Bio-Rad).
Cells were cultured in 12-well plates at a density of 3×10^4 cells per well (containing a glass coverslip the day before use). […]

siRNA = assay: Agarose gel electrophoresis retardation assay (siRNA binding); settings: earlier findings, FIG. 2D; ratios 1:1 to 7:1
Method: Gel electrophoresis was performed with agarose gel (1.5% w/v) in tris-acetate-EDTA buffer (40 mM) with one drop of ethidium bromide added (concentration of EtBr stock solution: 0.625 mg/ml in H2O), at 100 V for 30 min. The siRNA lipoplexes were prepared by complexing siRNA with Mito-Esc, Mito-isoscopoletin and octyl TPP cation at described P^+/P^− ratios. The samples were incubated for 30 min at room temperature prior to addition into a well. The siRNA bands were visualized under UV illumination at 365 nm.
Mito-Esc nanoparticle solutions were prepared at various concentrations according to the desired final P+:P− charge ratio. Twenty μL solution of the Mito-Esc/siRNA complex was prepared to maintain a constant amount of siRNA in each solution (1 μg in 10 μL), and varying the amount of Mito-Esc according to the P+:P− charge ratio. The prepared mixtures were gently vortexed for 5 min. and incubated for 30 min at room temperature for complex formation.
The efficiency of Mito-Esc to bind siRNA was checked by agarose gel electrophoresis. Also, in order to assess the importance of hydrogen bonding in forming the stable siRNA complexes, Mito-isoscopoletin was synthesized by protecting the dihydroxy group with methyl group. Octyl TPP cation was used as a negative control.

Question: Which IC50 [1] does the source give for O=c1cc(CCCCCCCC[P+](c2ccccc2)(c2ccccc2)c2ccccc2)c2cc(O)c(O)cc2o1 [Mito-Esc, (8-(6,7-dihydroxy-2-oxo-2H-chromen-4-yl)octyl) triphenylphosphonium] here?
Answer: > 100 µM

Question: What about the IC50 [2] of the same compound?
Answer: 15.5 µM

Question: What about the “concentrations causing dose-dependent cell death” value [3] of the same compound?
Answer: 1.5 to 7.5 µM

Question: What about the IC50 [4] of the same compound?
Answer: 10 µM

Question: What about the “breast cancer progression (tumor volume, weight)” value [5] of the same compound?
Answer: regress breast cancer progression

Question: And the “particle size (DLS)” value [6]?
Answer: 166±30 nm

Question: What about the surface charge [6] of the same compound?
Answer: 33±0.4 mV

Question: And the “efficiency of siRNA delivery” value (MCF-10A cells)?
Answer: lower than Lipofectamine-2000

Question: And the IC50 [7]?
Answer: 4.9 µM

Question: And the “intracellular delivery of Cy-5 siRNA” value (MDA-MB-231 cells)?
Answer: significantly caused the intracellular delivery of Cy-5 siRNA

Question: What about the “nanoparticle size by SEM/TEM” value [8] of the same compound?
Answer: < 200 nm

Question: What about the IC50 [9] of the same compound?
Answer: 4.8 µM

Question: And the IC50 (A549 (lung) cancer cells)?
Answer: 1.8 µM

Question: What does the source list for O=c1ccc2cc(O)c(O)cc2o1 [parent esculetin, esculetin]?
Answer: intracellular delivery of Cy-5 siRNA (MDA-MB-231 cells): failed to deliver the Cy-5 siRNA intracellularly; MnSOD protein levels (MnSOD): neither parent esculetin nor octyl TPP cation complexes were able to decrease MnSOD expression

Question: Which results are given for “(8-(6,7-dimethoxy-2-oxo-2H-chromen-4-yl)octyl)triphenylphosphonium [Mito-isoscopoletin]”?
Answer: P+/P− charge ratios at which siRNA is bound (migration retarded) (siRNA): did not bind the siRNA; intracellular delivery of Cy-5 siRNA (MDA-MB-231 cells): failed to deliver the Cy-5 siRNA intracellularly
